Molecular target: T1, ST3Gal 1 (rat recombinant a 2,3-Sialytransferase) (Rattus norvegicus, UniProt Q6H8N0)
T1 sequence (Q6H8N0 1-340): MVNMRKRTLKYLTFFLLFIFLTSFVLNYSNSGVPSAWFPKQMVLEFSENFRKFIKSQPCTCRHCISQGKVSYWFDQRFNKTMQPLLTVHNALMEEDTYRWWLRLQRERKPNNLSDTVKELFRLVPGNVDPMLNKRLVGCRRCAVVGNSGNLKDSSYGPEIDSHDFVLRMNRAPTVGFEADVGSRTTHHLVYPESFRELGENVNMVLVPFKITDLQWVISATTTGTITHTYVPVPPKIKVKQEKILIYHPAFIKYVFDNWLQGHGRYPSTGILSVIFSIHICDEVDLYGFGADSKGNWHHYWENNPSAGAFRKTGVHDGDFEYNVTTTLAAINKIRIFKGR
Experiment: ST3Gal 1 assay with 2AA-labeled GSL standards, HPLC readout
Assay type: biochemical
Details: b350 ties FIG. 5/6 (compound 1) to the ST3Gal 1 assay
Procedure: The enzyme ST3Gal 1 (rat recombinant a 2,3-Sialytransferase) assay was carried out with 2AA-labeled GSL standards as substrate. The complete incubation mixture contained the following components in a final volume of 20 ul: 50 mM cacodylate buffer, pH6.2, 10 mM MgCl2, 0.2% TX100, 2 mM CMP-sialic acid (CMP-SA), 100 ng 2AA-GM1/GD1b, 10 μU of ST3Gal1 enzyme. The reaction was carried out @37° C. for 30 min. Control reactions were done without CMP-SA. The reaction was analyzed by HPLC as described above. The % of product conversion was assessed by comparison to control samples. The enzyme titration curve was determined from 10, 3, 1, 0.3 and 0.1 μU of enzyme. The time course was determined using 10 μU of the enzyme, @ 0, 5, 10, 15, 30, 45, 60, 90, and 120 min. […] FIG. 5 illustrates the activity of late stage selective ganglioside inhibitors.

## Cc1nn(-c2ccccc2)c(C)c1C=NN1CCN(Cc2ccccc2Cl)CC1 [compound 1, 4-(2-chlorobenzyl)-N-((3,5-dimethyl-1-phenyl-1H-pyrazol-4-yl)methylene)piperazin-1-amine]
  inhibition of ST3Gal 1 enzyme activity (FIG. 5): inhibition

From patent US20100248365A1, “GANGLIOSIDE BIOSYNTHESIS MODULATORS” (ZACHARON PHARMACEUTICALS, INC., priority 2009, published 2010)
